# In patent US6177475A, “Methods of using integrin modulators for treatment of inflammation” (priority 1997, dated 2001):
# pIC50: −log10 of the molar value.
# How the values were obtained:
# [1] = tested on: HIV-1 strain IIIB; experiment: Protection of MT-4 cells against infection with free HIV (PCR for proviral DNA); assay type: cell-based; settings: Human immunodeficiency virus 1, IIIB, MT4, 16 hours
# Protocol: The effect of Ajoene in protecting against HIV infection was evaluated using polymerase chain reaction (PCR) analysis which recognized amplified DNA sequences of HIV gag gene. MT-4 cells were used as target cells and strain IIIB of HIV-1 was used as inoculate. Serial dilutions of Ajoene or an equivalent volume of its vehicle were added to MT-4 cells, followed by addition of a sufficient amount of free virus (≥10^3 particles per cell). The protective effect of Ajoene was monitored by examining for the absence or presence of proviral HIV DNA in target cells 16 hours after the inoculation.
# [2] = tested on: MOLT-4 cells / syncytiotrophoblasts; experiment: Adhesion of uninfected MOLT-4 clone 8 cells to syncytiotrophoblasts; assay type: cell-based, human
# Text: (§1) Human fetal placental epithelial cells, known as syncytiotrophoblasts, were organized in a monolayer and exposed to HIV-infected lymphocytic cells and, as a negative control, to uninfected cells of the same type. This experimental system, closely simulating the actual conditions under which syncytiotrophoblasts would be exposed to HIV-infected cells in vivo, was used to assess integrin-modulating effects of Ajoene.
# MOLT-4 clone 8 cells were labeled with calcein-AM, pretreated with different concentrations of Ajoene (0-200 micromoles per liter) and incubated with cultured term syncytiotrophoblast cells at 37° C. for one hour in the presence of Ajoene. Adhesion was measured directly as fluorescence units after background correction. Controls included measuring adhesion in the presence of the appropriate carrier solvent.
# [3] = tested on: HIV-1LBi (HIV-infected MOLT-4 cells, syncytiotrophoblasts); experiment: Lymphocyte-mediated HIV infection of syncytiotrophoblasts; assay type: cell-based; settings: 200 micromoles per liter, 24 hours, virtually all colonies
# Text: as §1
# In order to assess the ability of Ajoene to inhibit lymphocyte-mediated HIV infection of syncytiotrophoblasts, HIV-1LBi -infected MOLT-4 cells were added to adherent cultures of uninfected syncytiotrophoblasts in the presence and absence of Ajoene. Various additional control conditions were also established. First, some wells received filtered (0.45 micrometer) supernatant of cell-free HIV from infected cell cultures. Yet other negative controls included syncytiotrophoblasts cultured alone and syncytiotrophoblasts cultured with uninfected MOLT-4 cells. After 24 hours, the cocultures were washed to removed unbound lymphocytes, fixed, permeabilized, stained for viral core antigens (p24 and p55), and viewed under a fluorescence microscope.
# [4] = tested on: 51Cr-labeled monocytes; experiment: Monocyte recruitment to inflamed joints in rat adjuvant arthritis; assay type: in vivo; settings: 50 mg/kg i.v.; for Accumulation of 51Cr-labeled Monocytes (mean ± SEM): 2 h
# Protocol: Rat adjuvant arthritis is characterized by integrin-mediated migration of ^51 Cr-labeled monocytes and ^111 In-labeled neutrophils into the inflamed synovium, which attains maximum between days 14 and 21 after the immunization. This model of human rheumatoid arthritis was used to assess in vivo effects of Ajoene on integrins that are known to be modulated by Ajoene in vitro.
# Adjuvant arthritis was induced in 6-8 week old inbred male Lewis rats by immunization on the lower back with 0.5 mg Mycobacterium butyricum (Difco Laboratories, Inc., Detroit, Mich.) in 0.05 ml mineral oil in two sites subcutaneously at the base of the tail. All the animals developed polyarticular arthritis between days 11 and 13 after immunization. For clinical scoring, 0-4 points were assigned per limb and tail, based on the severity of erythema, swelling, and limitation of movement (the maximal possible score was 20).
# Rat blood monocytes and neutrophils for migration studies were obtained by the hydroxyethyl starch (HES) exchange transfusion technique. The total blood volume of a donor rat was exchanged using 50 ml 6% HES solution in saline (DuPont Chemical Co., Dorval, Canada). After recovery of 40-45 ml blood/HES perfusate, the red cells were allowed to sediment (1 g) and the leukocyte-rich plasma was harvested. The leukocytes were recovered by centrifugation, resuspended in calcium-magnesium-free Tyrode's solution supplemented with 10% platelet-poor plasma (TS-PPP), and centrifuged in a discontinuous 63%/74% gradient of isotonic Percoll (Pharmacia Fine Chemicals, Dorval, Canada). The top layer, containing mononuclear cells (MN), and the cells in the 63%/74% interface, containing neutrophils, were collected, washed, and resuspended in TS-PPP. To obtain purified monocytes, the osmolality of the MN suspension was increased by adding 9% NaCl, and the suspension was centrifuged in a 40%/55%/58% Percoll gradient; monocytes were harvested at 40%/55% and […] interfaces, washed, and resuspended in TS-PPP.
# Thereafter, monocytes (10^7 cells/ml) were labeled with 75 microCurie/ml of Na2^51 CrO4 (Amersham, Oakville, Canada) at 37° C. for 30 min. Neutrophils (10^7 cells/ml) were labeled with 1 microCurie/ml of ^111 In oxine (Amersham) for 10 min. Both populations were washed to remove excess labeled material and checked for viability and purity. The viability of either cell population used in the experiments was in excess of 95% (as double-checked by Trypan blue exclusion and neutral red staining). The separation procedure described above ordinarily produced populations that contained no less than 90% monocytes and no less than 95% neutrophils. […]
structure (smiles),measurement,setting,value
"C=CCSSC=CC[S+]([O-])CC=C (stereo not drawn) [Ajoene, 4,5,9-trithiadodeca-1,6,11-triene-9-oxide]",pIC50,[1],5.30
same,IC100,[1]; read-out: minimal dose completely preventing HIV infection,17 µM
same,inhibition of adhesion of MOLT-4 cells to syncytiotrophoblasts,[2]; 200 micromoles per liter,100%
same,pIC50,"[2]; Homo sapiens, MOLT-4, 1 hour, 37° C., cells not infected with HIV",4.22
same,prevention of lymphocyte-mediated HIV infection of syncytiotrophoblasts,[3],totally prevented
same,inhibition of monocyte recruitment to the talar joints,[4],~ 50%
same,Accumulation of 51Cr-labeled Monocytes (mean ± SEM),"[4]; talar joint, P < 0.006 vs control","25,078 cpm per sample"
same,Accumulation of 51Cr-labeled Monocytes (mean ± SEM),"[4]; tarsal joint, N.S.","10,365 cpm per sample"
same,Accumulation of 51Cr-labeled Monocytes (mean ± SEM),"[4]; vertebral joints, P = 0.079","2,737 cpm per sample"
